Data taken from paper PMC7602804 (Nutrients, 2020).
Entries after “also recorded” stand apart in the source; their conditions may differ. Each block holds one compound with its values, some of them ahead of it. No end group written: not given here.

Tests used:
[1] = test system: Caco-2 monolayer; experiment: Passive permeability (Papp) of mannitol across Caco-2 monolayers, membrane integrity; assay type: in vitro ADME, human; settings: D-[1-14C]-Mannitol 3.5 µM, 56.8 mCi/mmol, apical, with or without milk peptides; A-B; 2.5 h; HBSS + 10 mM HEPES; liquid scintillation counting; mean ± standard deviation of four or five inserts
Method: (§1) The Caco-2 cells used for transport studies were seeded in polyethylene terephthalate culture inserts, with a pore size of 0.4 μm and a growth area of 0.33 cm^2 at a density of approximately 25,000 cells/insert. The Caco-2 cells were grown for three weeks on the porous membrane before they were used for transepithelial transport. The integrity of the monolayers was confirmed by measuring the TEER using a Millicell ERS-2 volt ohmmeter. Only Caco-2 monolayers with TEER values above 400 Ω cm^2 were used for the transport analysis.
(§2) Following the TEER value measurement, the Caco-2 and PBEC monolayers were gently washed twice with phosphate-buffered saline, and the transport medium (Hanks’ Balanced Salt solution supplemented with 10 mM of HEPES) was added to the apical and basolateral compartments. […] Basolateral samples were mixed with Ultima Gold liquid scintillation fluid (Perkin Elmer) and counted in a Tri-Carb 2810 TR scintillation counter (Perkin Elmer). The apparent permeability coefficient (Papp, cm/s) was determined as Papp = (dQ/dt)/(AC0) where dQ/dt is the steady state flux (cpm/s), A is the surface area of the cell culture insert membrane and C0 is the initial concentration in the apical compartment (cpm/mL). […]

[2] = test system: PBEC monolayer (BBB model); experiment: Passive permeability (Papp) of mannitol across PBEC monolayers, membrane integrity; assay type: in vitro ADME, porcine; settings: D-[1-14C]-Mannitol 3.5 µM, 56.8 mCi/mmol, apical, with or without milk peptides; A-B; 2.5 h; HBSS + 10 mM HEPES; liquid scintillation counting; mean ± standard deviation of four or five inserts
Method: PBECs were grown until 70–80% confluency as described above and then passaged onto polyester culture inserts with a pore size of 0.4 μm and a growth area of 1.12 cm^2 (Costar, Corning, NY, USA) at a density of 1.1 × 10^5 cells/cm^2 in the PBEC growth medium. In the basolateral chamber, the medium consisted of 1 mL of PBEC growth medium and 0.5 mL of astrocyte conditioned medium. The medium was supplemented with differentiation factors: 550 nM of hydrocortisone, 250 μM of 8-(4-chlorophenylthio)adenosine-3′,5′-cyclic monophosphate (cAMP) and 17.5 μM of RO-201724 two days after seeding. The next day, the integrity of the PBEC monolayer was confirmed by measuring the TEER. […]
as §2

[3] = test system: Caco-2 monolayers; experiment: Apical to basolateral transport of milk peptides across Caco-2 monolayers (LC-MS/MS of basolateral medium); assay type: in vitro ADME, human; settings: Caco-2, 3 weeks on PET inserts 0.4 μm, TEER above 400 Ω cm^2; A-B; mix of 192 purified milk peptides 0.1 mg/mL apical; HBSS + 10 mM HEPES; 2.5 h; LC-MS/MS of basolateral medium; identified in two out of three experiments
Method: The human colorectal adenocarcinoma cell line, Caco-2, was obtained from DSMZ (Braunschweig, Germany). The cells were grown to 50–60% confluence in Dulbecco’s Modified Eagle Medium (DMEM) Glutamax cell culture medium, supplemented with 10% heat-inactivated fetal bovine serum, 100 units/mL of penicillin and 100 μg/mL of streptomycin (all from Invitrogen, Carlsbad, CA, USA) in a humidified 5% CO2/95% air atmosphere at 37 °C. The cells used in the experiments were between passages 30 and 40.
as §1
(§3) Following the TEER value measurement, the Caco-2 and PBEC monolayers were gently washed twice with phosphate-buffered saline, and the transport medium (Hanks’ Balanced Salt solution supplemented with 10 mM of HEPES) was added to the apical and basolateral compartments. The inserts were incubated for 15 min or 2.5 h with the purified milk peptides (0.1 mg/mL) or the synthetic PIGSENSEKTTMPLW peptide (2 µg/mL), after which medium from the apical and basolateral compartments were collected for liquid chromatography tandem mass spectrometry (LC-MS/MS) analysis. Inserts incubated with a medium without peptides served as the control in the transport experiments. Membrane integrity was validated by addition of D-[1-^14C]-Mannitol (3.5 µM, 56.8 mCi/mmol) (Perkin Elmer, Waltham, MA, USA) to the upper chamber of the culture inserts with or without milk peptides for 2.5 h. The passive permeability experiments were performed on four or five individual culture inserts. Basolateral samples were mixed with Ultima Gold liquid scintillation fluid (Perkin Elmer) and counted in a Tri-Carb 2810 TR scintillation counter (Perkin Elmer). The apparent permeability coefficient (Papp, cm/s) was determined as Papp = (dQ/dt)/(AC0) where dQ/dt is the steady state flux (cpm/s), A is the surface area of the cell culture insert membrane and C0 is the initial concentration in the apical compartment (cpm/mL).
LC-MS/MS analysis was performed on a TripleTOF 6600 mass spectrometer equipped with an Exigent nanoLC 415 system (AB Sciex, Les Ulis, France). All samples were micro-purified using 3 M Empore C18 discs packed in pipette tips. The lyophilized samples were dissolved in 0.1% formic acid, injected on a trap column (2 cm × 100 µm inner diameter) and separated on an analytical column packed in-house in a pulled emitter (15 cm × 75 µm inner diameter). All columns were packed with ReproSil-Pur C18-AQ 3 µm resin (courtesy of Dr. Marisch, Ammerbuch-Entringen, Germany). Peptides were eluted directly into the mass spectrometer with a linear gradient from 5 to 35% solvent B (0.1% formic acid in acetonitrile) for 20 min with a flowrate of 250 nL/min, followed after 10 min with 100% solvent B. Data files were converted to Mascot Generic Format using the Raw Converter (version 1.1.0.18) (http://fields.scripps.edu/rawconv/) or the AB Sciex MS Data Converter beta 1.1 (AB Sciex, Les Ulis, France). The generated peak lists were searched against the Bos taurus proteome (UniProt database, https://www.uniprot.org)) using an in-house Mascot search engine (Matrix Science, London, UK). The searches were made without specifying a protease and with oxidation (Met) and phosphorylation (ST) as variable modifications. Peptide tolerance was set to 10 ppm and MS/MS tolerance was set to 0.2 Da. […]

[4] = test system: porcine brain endothelial cell (PBEC) monolayers; experiment: Apical to basolateral transport of milk peptides across porcine brain endothelial cell (PBEC) monolayers, blood-brain barrier model; assay type: in vitro ADME; settings: primary PBEC on polyester inserts 0.4 μm, astrocyte conditioned medium, TEER higher than 800 Ω cm^2; A-B; mix of 192 milk peptides 0.1 mg/mL apical; HBSS + 10 mM HEPES; 2.5 h; LC-MS/MS; five independent studies; αS1 peptide 'or' its truncated peptides stated collectively
Method: Capillaries were isolated from the brain cortices of domestic pigs 5–6 months old as previously described. PBECs were cultured by plating the capillaries in T75 flasks coated with collagen IV (500 µg/mL) and fibronectin (100 µg/mL) in DMEM-F12 medium, supplemented with 10% plasma-derived serum (First Link, Wolverhampton, UK), heparin (15 U), 100 units/mL of penicillin and 100 µg/mL of streptomycin (PBEC growth medium), and cultured in an incubator with humidified 5% CO2/95% air at 37 °C. Puromycin (4 µg/mL) was added to the growth medium for the first three days to obtain a pure culture of PBECs.
Astrocyte conditioned medium was collected every third day from primary rat astrocytes, sterile filtered and frozen until use. Isolation of primary rat astrocytes and preparation of astrocyte conditioned media were carried out as described in [20].
PBECs were grown until 70–80% confluency as described above and then passaged onto polyester culture inserts with a pore size of 0.4 μm and a growth area of 1.12 cm^2 (Costar, Corning, NY, USA) at a density of 1.1 × 10^5 cells/cm^2 in the PBEC growth medium. In the basolateral chamber, the medium consisted of 1 mL of PBEC growth medium and 0.5 mL of astrocyte conditioned medium. The medium was supplemented with differentiation factors: 550 nM of hydrocortisone, 250 μM of 8-(4-chlorophenylthio)adenosine-3′,5′-cyclic monophosphate (cAMP) and 17.5 μM of RO-201724 two days after seeding. The next day, the integrity of the PBEC monolayer was confirmed by measuring the TEER. Only PBEC monolayers with TEER values higher than 800 Ω cm^2 were used for the transport analysis.
as §3
LC-MS/MS analysis was performed on a TripleTOF 6600 mass spectrometer equipped with an Exigent nanoLC 415 system (AB Sciex, Les Ulis, France). All samples were micro-purified using 3 M Empore C18 discs packed in pipette tips. The lyophilized samples were dissolved in 0.1% formic acid, injected on a trap column (2 cm × 100 µm inner diameter) and separated on an analytical column packed in-house in a pulled emitter (15 cm × 75 µm inner diameter). All columns were packed with ReproSil-Pur C18-AQ 3 µm resin (courtesy of Dr. Marisch, Ammerbuch-Entringen, Germany). […]

[5] = test system: Caco-2 monolayers; parameters: method as in PMID 20397193, PMID 23561097; settings: Caco-2 monolayer; cited from earlier work
[6] = test system: angiotensin-converting enzyme (ACE); settings: potential anti-hypertensive peptides; cited from earlier work
From the text: The ACE-inhibitory ability is presumably mediated through the derived fragments TTMPLW and KTTMP [36, 37]. Thus, the transport of this peptide across physiological barriers could influence the regulation of arterial blood pressure. Furthermore, ACE is present in the brain and plays a key role in high salt induced sympatho-excitation, hypertension, neuroprotection, cognition and cerebr ...

[7] = test system: pepsin from porcine gastric mucosa, then trypsin and chymotrypsin from a bovine pancreas and elastase; experiment: purified milk peptide mix: pepsin in 0.15 M NaCl pH 2.5 (1:100 w/w), then trypsin, chymotrypsin (1:100 w/w) and elastase (1:500 w/w) in 50 mM ammonium bicarbonate pH 7.6; settings: 37 °C, up to 60 min
[8] = test system: pepsin from porcine gastric mucosa, then trypsin and chymotrypsin from a bovine pancreas and elastase; experiment: synthetic peptide: pepsin in 0.15 M NaCl pH 2.5 (1:100 w/w, 60 min), then trypsin, chymotrypsin (1:100 w/w) and elastase (1:500 w/w) in 50 mM ammonium bicarbonate pH 7.6; settings: 37 °C, up to 270 min
[9] = primary porcine brain endothelial cell (PBEC) monolayers in culture inserts; transport medium (Hanks' Balanced Salt solution supplemented with 10 mM of HEPES); basolateral medium analysed; settings: up to 2.5 h
[10] = Caco-2 monolayers in culture inserts; transport medium (Hanks' Balanced Salt solution supplemented with 10 mM of HEPES); basolateral medium analysed; settings: human, up to 2.5 h

Compound: OC[C@@H](O)[C@@H](O)[C@H](O)[C@H](O)CO [D-[1-^14C]-Mannitol]
Apparent permeability coefficient (Papp) of the Caco-2 monolayer [1]: 9.45 ± 2 × 10^−7 cm s^−1
Papp for the BBB (PBEC monolayer) [2]: 1.09 ± 0.14 × 10^−6 cm s^−1

Compound: EPVLGPVRGPFPIIV [EPVLGPVRGPFPIIV]
Peptide identified in the basolateral chamber of Caco-2 monolayers (transported) [3]: not transported across the Caco-2 monolayers
Peptide identified in the basal compartment (brain side) of the PBEC BBB model (transported) [4]: identified in the basal compartment of the BBB model
Crossing of in vitro intestinal barrier models in other studies [5]: shown to cross over in vitro intestinal barrier models

Peptide identified in the basal compartment (brain side) of the PBEC BBB model (transported) [4]: identified in all experiments
Compound: IGSENSEKTTMP [truncated derivative of the αS1-casein peptide …]
Inhibition of the activity of angiotensin-converting enzyme (ACE) [6]: can inhibit the activity of angiotensin-converting enzyme

Compound: PIGSENSEKTTMPLW
not cleaved [7]: peptide ion still observed after pepsin and pancreatic enzyme digestion
not cleaved [8]: ion corresponding to the peptide observed even after 270 min of digestion
fragment found [9]: PIGSENSEKTTMP (Mox), 2.5 h; also recorded: PIGSENSEKTT, 2.5 h
fragment found [10]: PIGSENSEKTTMP (Mox), 2.5 h; also recorded: PIGSENSEKTT, 2.5 h
